5 compounds from US9889155B2, “Enhancer of anti-tumor effect of anti-cancer agent” (priority 2014, dated 2018) can be followed below.

Data set [1] relates to Human colorectal cancer cells (HCT116). Kind of data set: IC50 of anticancer agents against HCT116 cells with or without sCA particles, cell count at 48 hours (Example 2). In kind it is cell-based. How it is done: At 48 hours after the addition of each of the anticancer agents, the number of cells was counted, and the IC50 (concentration of 5-fluorouracil that kills 50% of the cancer cells) value was determined.

Data set [2] shares this test system. The data set can be described thus: IC50 of 5-fluorouracil against HCT116 cells with or without sCA particles, cell count (Example 1). In kind it is cell-based. As to conditions: sCA(1) particles added 24 hours before, where used. How it is done:
At 24, 48, and 72 hours after the addition of 5-fluorouracil, the number of cells was counted, and IC50 (concentration of 5-fluorouracil that kills 50% of the cancer cells) values were determined.

Data set [3] has as its system human colorectal cancer cell line HT29 subcutaneous tumor. The data set can be described thus: Doxorubicin accumulation in HT29 subcutaneous tumors, IVIS Spectrum fluorescent imaging (Example 7). As to conditions: HT29 tumor mice; doxorubicin hydrochloride 1.5 mg/mouse via tail vein; tumors removed after 2 hours; sCA(2) particles 3 hours before, where used; FIG. 9. The data set is classed as in vivo, BALB/cA nude mice. How it is done: At the time when the tumors reached about 10 mm in diameter, the mice were randomly divided into the two groups shown in Table 5, and each group was administered the drug. After 2 hours from the drug administration, tumors were removed from the mice, and doxorubicin hydrochloride accumulated in the tumors was detected by fluorescent imaging using the IVIS Spectrum. For doxorubicin (DOX), detection of fluorescence wavelength has been confirmed by the IVIS Spectrum (FIG. 8).

Setting [4] is: Homo sapiens, HCT-116, 48 hours after addition of anticancer agent, With sCA particles, read-out: IC50 (mean ± SD), With sCA particles.
The mark [5] stands for this setting: Homo sapiens, HCT-116, 48 hours after addition of anticancer agent, Without sCA particles, read-out: IC50 (mean ± SD), Without sCA particles.
Where [6] appears, read: 48 hours after addition of anticancer agent, With sCA particles, read-out: IC50 (mean ± SD), With sCA particles.
The mark [7] stands for this setting: 48 hours after addition of anticancer agent, Without sCA particles, read-out: IC50 (mean ± SD), Without sCA particles.

≈ marks a conversion by molar mass, not a printed value. Counter-ions that a name gives are not always drawn.

Broadly, the IC50 is the midpoint of a concentration-inhibition curve. In the case of `O=c1[nH]cc(F)c(=O)[nH]1` [5-fluorouracil], the 50% inhibitory concentration (IC50) in data set [1] (setting [4]) turned out to be 74.6 ± 10 µM; in data set [1] (setting [5]) it was 11.7 ± 2 µM; in data set [2] (HCT-116, 24 hours after addition of 5-fluorouracil, read-out: IC50 (mean ± SD), After 24 hr), 215 ± 141 µg/mL (≈ 1650 µM); in data set [2] (HCT-116, 48 hours after addition of 5-fluorouracil, read-out: IC50 (mean ± SD), After 48 hr) it was 4.07 ± 0.473 µg/mL (≈ 31.3 µM); in data set [2] (HCT-116, 72 hours after addition of 5-fluorouracil, read-out: IC50 (mean ± SD), After 72 hr), 2.64 ± 0.696 µg/mL (≈ 20.3 µM).
In the case of `O=C1[O][Pt]2([NH][C@@H]3CCCC[C@H]3[NH]2)[O]C1=O` [Oxaliplatin, oxaliplatin], the results for the concentration for half-maximal inhibition (IC50) in data set [1] (setting [6]) and in data set [1] (setting [7]) were 31.3 ± 2.2 µM and 3.7 ± 1.1 µM, respectively.
On to `CC(=O)O[C@@]12CO[C@@H]1C[C@H](O)[C@@]1(C)C(=O)[C@H](O)C3=C(C)[C@@H](OC(=O)[C@H](O)[C@@H](NC(=O)OC(C)(C)C)c4ccccc4)C[C@@](O)([C@@H](OC(=O)c4ccccc4)[C@H]21)C3(C)C` [Docetaxel, docetaxel], for which the half-maximal inhibitory concentration (IC50) in data set [1] (setting [4]) is 0.00917 ± 0.00042 µM; in data set [1] (setting [5]), 0.000353 ± 7e-05 µM.
For `COc1cccc2c1C(=O)c1c(O)c3c(c(O)c1C2=O)C[C@@](O)(C(=O)CO)C[C@@H]3O[C@H]1C[C@H](N)[C@H](O)[C@H](C)O1` [doxorubicin hydrochloride], the “doxorubicin accumulated in the tumor (fluorescent imaging)” value in data set [3] is “only a small amount of doxorubicin was detected in the tumor”.
With `N.N.[Cl][Pt][Cl]` [Cisplatin, cisplatin], the concentration for half-maximal inhibition (IC50) in data set [1] (setting [6]) was determined as 39.2 ± 2.7 µM; in data set [1] (setting [7]), 31.3 ± 0.9 µM.
